Data published in patent publication US9662318B2, “Bitopic muscarinic agonists and antagonists and methods of synthesis and use thereof” (BARRY UNIVERSITY, INC., priority 2012, dated 2017).
Read-outs that look alike come from different tables or passages of the source.

What was measured:
[1] = target: T1, M1 muscarinic receptor (Homo sapiens, UniProt P11229); test: Dissociation of [3H]acetylcholine (full time course kinetics); format: binding; details: [3H]acetylcholine dissociation
T1 sequence (P11229 1-460): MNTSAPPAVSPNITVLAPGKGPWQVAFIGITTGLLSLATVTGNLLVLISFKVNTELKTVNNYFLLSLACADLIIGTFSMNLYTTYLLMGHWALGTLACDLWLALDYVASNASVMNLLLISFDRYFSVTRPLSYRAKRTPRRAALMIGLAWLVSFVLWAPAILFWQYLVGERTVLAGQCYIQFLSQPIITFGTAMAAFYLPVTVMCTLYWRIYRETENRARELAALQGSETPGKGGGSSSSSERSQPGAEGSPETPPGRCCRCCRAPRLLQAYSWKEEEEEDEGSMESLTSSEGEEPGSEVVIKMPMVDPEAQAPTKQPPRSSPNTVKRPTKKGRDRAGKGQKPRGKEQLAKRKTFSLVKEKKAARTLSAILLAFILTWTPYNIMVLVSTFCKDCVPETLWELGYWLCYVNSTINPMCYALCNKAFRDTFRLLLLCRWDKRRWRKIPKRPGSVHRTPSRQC
From the text: (§1) To probe the ability of JB-D4 to allosterically modulate orthosteric ligand, its effect on the rate of orthosteric radioligand dissociation has been investigated. […] where y is the percentage of radioligand binding at time x of radioligand binding at time 0, koff1 and koff2 are rate dissociation constants and f2 is the percentage of sites with koff2 rate of dissociation. […] y is the percentage of radioligand binding at time x of radioligand binding at time 0, koff is rate dissociation constant and f is percentage of sites with koff rate of dissociation. Eq. 2 was fitted to the data from kinetic experiments. Data are means±SD from 3 independent experiments performed in quadruplicates.

[2] = target: T2, M3 muscarinic receptor (Homo sapiens, UniProt P20309); test: as above; format: binding; details: [3H]acetylcholine dissociation
T2 construct: host or cells: Chinese hamster ovary cells
From the text: as §1

[3] = target: T3, M4 muscarinic receptor (Homo sapiens, UniProt P08173); test: as above; format: binding; details: [3H]acetylcholine dissociation
T3 construct: host or cells: Chinese hamster ovary cells
T3 sequence (P08173 1-479): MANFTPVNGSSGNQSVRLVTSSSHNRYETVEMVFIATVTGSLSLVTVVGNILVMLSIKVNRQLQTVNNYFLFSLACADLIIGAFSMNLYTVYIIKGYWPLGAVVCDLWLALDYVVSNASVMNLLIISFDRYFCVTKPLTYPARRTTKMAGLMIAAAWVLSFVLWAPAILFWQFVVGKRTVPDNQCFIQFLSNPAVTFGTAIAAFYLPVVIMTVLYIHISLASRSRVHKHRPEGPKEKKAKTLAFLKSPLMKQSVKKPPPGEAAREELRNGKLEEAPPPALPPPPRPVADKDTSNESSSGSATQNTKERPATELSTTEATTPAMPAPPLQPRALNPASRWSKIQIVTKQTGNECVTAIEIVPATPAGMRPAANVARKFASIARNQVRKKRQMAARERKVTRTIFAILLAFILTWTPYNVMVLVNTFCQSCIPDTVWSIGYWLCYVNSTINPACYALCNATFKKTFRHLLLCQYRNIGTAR
From the text: as §1

[4] = target: T4, M5 muscarinic receptor (Homo sapiens, UniProt P08912); test: as above; format: binding; details: [3H]acetylcholine dissociation
T4 construct: host or cells: CHO (Chinese hamster ovary) cells, stably transfected
T4 sequence (P08912 1-532): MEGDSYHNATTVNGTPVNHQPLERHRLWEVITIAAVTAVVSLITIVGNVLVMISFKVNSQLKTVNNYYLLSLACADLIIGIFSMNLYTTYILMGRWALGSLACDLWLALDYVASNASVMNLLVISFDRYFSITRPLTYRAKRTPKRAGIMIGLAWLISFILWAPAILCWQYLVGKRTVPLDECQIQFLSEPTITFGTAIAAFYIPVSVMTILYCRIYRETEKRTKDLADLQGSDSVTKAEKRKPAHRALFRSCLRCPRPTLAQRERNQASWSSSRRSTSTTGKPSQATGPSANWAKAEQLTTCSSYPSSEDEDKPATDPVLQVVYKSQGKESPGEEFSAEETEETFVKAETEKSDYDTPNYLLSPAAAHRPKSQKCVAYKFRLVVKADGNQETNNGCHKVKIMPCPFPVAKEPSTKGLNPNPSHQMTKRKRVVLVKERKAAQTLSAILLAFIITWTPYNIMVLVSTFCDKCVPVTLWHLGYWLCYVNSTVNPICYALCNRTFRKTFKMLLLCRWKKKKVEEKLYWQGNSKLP
From the text: as §1

[5] = target: T1, M1 muscarinic receptor; test: biochemical; format: binding; details: competition with [^3H]QNB
[6] = target: T3, M4 muscarinic receptor; test: biochemical; format: binding; details: competition with [^3H]QNB
[7] = target: T3, M4 muscarinic receptor; test: Accumulation of inositol phosphates in CHO cells; format: cell-based; details: M4; ligand 0.1 mM; no carbachol
Protocol: (§2) Chinese hamster ovary cells stably transfected with the genes of human variants of muscarinic receptors were purchased from Missouri S&T cDNA Resource Center (Rolla, Mo., USA). […] Cells were grown to confluency in 75 cm^2 flasks in Dulbecco's modified Eagle's medium supplemented with 10% fetal bovine serum and 2 million of cells were subcultured to 100 mm Petri dishes. Medium was supplemented with 5 mM butyrate for the last 24 hours of cultivation to increase receptor expression.
(§3) Inositolphosphates formation was determined in cells pre-labeled overnight by 0.5 μM [^3H]myo-inositol in 0.3 mL of DMEM (3 μCi/ml) at 37° C. […] Incubation was stopped by removal of incubation buffer and addition 0.2 mL 20% trichloracetic acid (TCA). After 1 h incubation at 4° C., 100 μL, of TCA extracts were taken for measurement. Rest of the TCA was removed, and TCA precipitates were washed with 200 μL TCA and dissolved in 200 μL of 1 M NaOH. After 1 h incubation at 4° C., 100 μL, of NaOH lysates were taken for measurement. Radioactivity in TCA extracts and NaOH lysates were determined by liquid scintillation counting. The rate of inositolphosphates accumulation was calculated as a percentage of the soluble (released) inositolphosphates from the total incorporated radioactivity (sum of radioactivity in NaOH lysates and TCA extracts).
(§4) EC50 values are expressed as negative logarithms and EMAX values as folds over basal, Table 7.

[8] = target: T4, M5 muscarinic receptor; test: Accumulation of inositol phosphates in CHO cells; format: cell-based; details: M5; ligand 0.1 mM; no carbachol
Protocol: as §2, §3, §4

[9] = tested on: M1-M5 muscarinic receptors; format: binding, human; details: competition experiments, all M1-M5

T2 sequence (P20309 whole entry): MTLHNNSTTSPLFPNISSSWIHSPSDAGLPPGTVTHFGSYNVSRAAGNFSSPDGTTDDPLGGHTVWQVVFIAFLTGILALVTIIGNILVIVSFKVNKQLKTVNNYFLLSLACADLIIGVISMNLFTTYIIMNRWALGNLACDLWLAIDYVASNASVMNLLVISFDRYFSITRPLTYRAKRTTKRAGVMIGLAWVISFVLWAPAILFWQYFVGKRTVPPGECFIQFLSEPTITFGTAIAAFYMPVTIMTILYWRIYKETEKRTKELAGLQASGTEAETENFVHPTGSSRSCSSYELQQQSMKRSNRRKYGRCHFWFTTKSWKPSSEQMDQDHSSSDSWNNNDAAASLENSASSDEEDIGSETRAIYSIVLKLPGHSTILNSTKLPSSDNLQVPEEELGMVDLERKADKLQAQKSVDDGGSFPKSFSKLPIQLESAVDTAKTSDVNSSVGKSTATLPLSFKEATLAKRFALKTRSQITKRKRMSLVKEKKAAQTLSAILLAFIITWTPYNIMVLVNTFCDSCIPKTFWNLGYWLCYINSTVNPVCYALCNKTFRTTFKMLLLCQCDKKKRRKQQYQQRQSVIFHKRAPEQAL

CCCCOc1ccc(C(=O)OCC[N+]2(C)CCCCC2)cc1.[I-] [JB-D4, 2-(N-piperidineethyl) p-butoxybenzoate N-methyl iodide]
f ([1]; +0.1 mM JB-D4, M1): 90 ± 3%
koff ([1]; +0.1 mM JB-D4, M1): 0.00317 s⁻¹
f ([1]; +1 mM JB-D4, M1): 88 ± 3%
koff ([1]; +1 mM JB-D4, M1): 0.00183 s⁻¹
f ([2]; +0.1 mM JB-D4, M3): 84 ± 3%
koff ([2]; +0.1 mM JB-D4, M3, read-out: koff (converted)): 0.00317 s⁻¹
f ([2]; +1 mM JB-D4, M3): 82 ± 3%
koff ([2]; +1 mM JB-D4, M3): 0.0014 ± 0.00012 s⁻¹
koff ([2]; +1 mM JB-D4, M3, read-out: koff (converted)): 0.0014 s⁻¹
f ([3]; +0.1 mM JB-D4, M4): 81 ± 4%
koff ([3]; +0.1 mM JB-D4, M4): 0.003 s⁻¹
f ([3]; +1 mM JB-D4, M4): 86 ± 3%
koff ([3]; +1 mM JB-D4, M4): 0.000817 s⁻¹
f ([4]; +0.1 mM JB-D4, M5): 81 ± 3%
koff ([4]; +0.1 mM JB-D4, M5, read-out: koff (converted)): 0.000633 s⁻¹
f ([4]; +1 mM JB-D4, M5): 81 ± 3%
koff ([4]; +1 mM JB-D4, M5): 0.00055 ± 8.3e-05 s⁻¹
koff ([4]; +1 mM JB-D4, M5, read-out: koff (converted)): 0.00055 s⁻¹
Ki ([5]; M1): 1.04 µM
IC50 ([5]; M1, average of 3, read-out: avg IC50): 8.78 µM
IC50 ([5]; M1, experiment 1, read-out: IC50—1): 8.72 µM
IC50 ([5]; M1, experiment 2, read-out: IC50—2): 9.42 µM
IC50 ([5]; M1, experiment 3, read-out: IC50—3): 8.19 µM
Ki ([6]; M4): 3.08 µM
IC50 ([6]; M4, average of 3, read-out: avg IC50): 27.1 µM
IC50 ([6]; M4, experiment 1, read-out: IC50—1): 20.6 µM
IC50 ([6]; M4, experiment 2, read-out: IC50—2): 32.6 µM
IC50 ([6]; M4, experiment 3, read-out: IC50—3): 28.1 µM
Effect of ligands on basal activity (accumulation of inositol phosphates as percent of accumulation in the absence of the ligand) [7]: 98 ± 4%
Effect of ligands on basal activity (accumulation of inositol phosphates as percent of accumulation in the absence of the ligand) [8]: 98 ± 3%
inhibition of QNB binding [9]: fully inhibit
